Key:
[1] = Blood glucose after oral BHP or BKP (Example 1); format: in vivo, human; conditions: 10 g oral in water, 12 h fast
Description: (§1) Two (2) healthy, male subjects reported to the laboratory following a 12 hour overnight fast. Subjects were instructed to randomly consume either 10 grams of BHP or 10 grams BKP dissolved in 12 ounces of water. Subjects were then monitored for 150 minutes following drinking the mixture. Blood glucose, ketones, and visual analog scales (VAS) of well-being, energy, and focus were taken at 0, 30, 60, 90, 120, and 150 minutes. VAS scales consisted of a continuum of numbers from 1-10 with 1 being extremely low and 10 being extremely high.
(§2) Blood ketones were measured via finger prick using an Abbott Precision device which determines mMol of BHB. Blood glucose was measured using Abbott Precision glucose strips and was measured in mg/dL.

[2] = Blood ketones (BHB, Abbott Precision) after oral BHP or BKP (Example 1); format: in vivo, human; conditions: 10 g oral in water, 12 h fast
Description: as §1, §2

[3] = Visual analog scale of well-being after BHP or BKP (Example 1); format: in vivo, human; conditions: scale 1-10, 10 g oral, 12 h fast
Description: as §1

[4] = Visual analog scale of energy after BHP or BKP (Example 1); format: in vivo, human; conditions: scale 1-10, 10 g oral, 12 h fast
Description: as §1

[5] = Visual analog scale of focus after BHP or BKP (Example 1); format: in vivo, human; conditions: scale 1-10, 10 g oral, 12 h fast
Description: as §1

[6] = Blood ketones after oral BHP (Example 3); format: in vivo, human; conditions: 10 g BHP oral in water
Description: (§3) Subjects consumed 10 grams of BHP dissolved in 12 ounces of water. Subjects were then monitored for 80 minutes following drinking the mixture. Blood glucose, ketones, and lactate were taken at 0, 20, 40, 60, and 80 minutes.
(§4) Blood ketones were measured via finger prick using an Abbott Precision device which determines mMol of BHB. Blood glucose was measured using Abbott Precision glucose strips and was measured in mg/dL. Blood lactate was measured using an Abbott Precision device which determines mMol of lactate.

[7] = Blood glucose after oral BHP (Example 3); format: in vivo, human; conditions: 10 g BHP oral in water
Description: as §3, §4

[8] = Blood lactate after oral BHP, safety (Example 3); format: in vivo, human; conditions: 10 g BHP oral in water
Description: The purpose of this experiment was to determine safety associated with ingestion of exogenous C5 ketones with regard to hyperlactemia, lactic acidosis, or ketoacidosis that sometimes happens with medications, as all 3 are associated with morbidity and mortality.
as §3, §4

[9] = short-term experiments; large supply of propionyl-CoA; cited from earlier work

With `CCC(O)CC(=O)O` (stereo not drawn) [BHP, β-hydroxypentanoate] the Blood glucose levels ([1]; Combined, 0 min.) was 84 mg/dL, the Blood glucose levels ([1]; Combined, 30 min.) was 80.5 mg/dL and the Blood glucose levels ([1]; Combined, 60 min.) was 70.5 mg/dL. The Blood glucose levels ([1]; Combined, 90 min.) was 79 mg/dL, the Blood glucose levels ([1]; Combined, 120 min.) was 83.5 mg/dL and the Blood glucose levels ([1]; Combined, 150 min.) was 90.5 mg/dL. It also gave a Blood glucose levels ([1]; Subject 1, 0 min.) of 84 mg/dL, a Blood glucose levels ([1]; Subject 1, 30 min.) of 85 mg/dL and a Blood glucose levels ([1]; Subject 1, 60 min.) of 75 mg/dL. For the same compound, the Blood glucose levels ([1]; Subject 1, 90 min.) was 79 mg/dL, the Blood glucose levels ([1]; Subject 1, 120 min.) was 86 mg/dL and the Blood glucose levels ([1]; Subject 1, 150 min.) was 91 mg/dL. For the same compound, the Blood glucose levels ([1]; Subject 2, 0 min.) was 84 mg/dL, the Blood glucose levels ([1]; Subject 2, 30 min.) was 76 mg/dL and the Blood glucose levels ([1]; Subject 2, 60 min.) was 66 mg/dL. It also gave a Blood glucose levels ([1]; Subject 2, 90 min.) of 79 mg/dL, a Blood glucose levels ([1]; Subject 2, 120 min.) of 81 mg/dL and a Blood glucose levels ([1]; Subject 2, 150 min.) of 90 mg/dL. For the same compound, the Blood ketone levels ([2]; Combined, 0 min.) was 0.1 mmol, the Blood ketone levels ([2]; Combined, 30 min.) was 1.6 mmol and the Blood ketone levels ([2]; Combined, 60 min.) was 0.55 mmol. The Blood ketone levels ([2]; Combined, 90 min.) was 0.2 mmol, the Blood ketone levels ([2]; Combined, 120 min.) was 0.3 mmol and the Blood ketone levels ([2]; Combined, 150 min.) was 0.2 mmol. It also gave a Blood ketone levels ([2]; Subject 1, 0 min.) of 0.1 mmol, a Blood ketone levels ([2]; Subject 1, 30 min.) of 1.8 mmol and a Blood ketone levels ([2]; Subject 1, 60 min.) of 0.7 mmol. It also gave a Blood ketone levels ([2]; Subject 1, 90 min.) of 0.2 mmol, a Blood ketone levels ([2]; Subject 1, 120 min.) of 0.2 mmol and a Blood ketone levels ([2]; Subject 1, 150 min.) of 0.2 mmol. It also gave a Blood ketone levels ([2]; Subject 2, 0 min.) of 0.1 mmol, a Blood ketone levels ([2]; Subject 2, 30 min.) of 1.4 mmol and a Blood ketone levels ([2]; Subject 2, 60 min.) of 0.4 mmol. It also gave a Blood ketone levels ([2]; Subject 2, 90 min.) of 0.2 mmol, a Blood ketone levels ([2]; Subject 2, 120 min.) of 0.4 mmol and a Blood ketone levels ([2]; Subject 2, 150 min.) of 0.2 mmol. For the same compound, the “VAS of Well-Being” value ([3]; Combined, 0 min.) was 6, the “VAS of Well-Being” value ([3]; Combined, 30 min.) was 5 and the “VAS of Well-Being” value ([3]; Combined, 60 min.) was 4.5. The “VAS of Well-Being” value ([3]; Combined, 90 min.) was 6, the “VAS of Well-Being” value ([3]; Combined, 120 min.) was 4.5 and the “VAS of Well-Being” value ([3]; Combined, 150 min.) was 5. For the same compound, the “VAS of Well-Being” value ([3]; Subject 1, 0 min.) was 7, the “VAS of Well-Being” value ([3]; Subject 1, 30 min.) was 5 and the “VAS of Well-Being” value ([3]; Subject 1, 60 min.) was 5. The “VAS of Well-Being” value ([3]; Subject 1, 90 min.) was 7, the “VAS of Well-Being” value ([3]; Subject 1, 120 min.) was 5 and the “VAS of Well-Being” value ([3]; Subject 1, 150 min.) was 6. The “VAS of Well-Being” value ([3]; Subject 2, 0 min.) was 5, the “VAS of Well-Being” value ([3]; Subject 2, 30 min.) was 5 and the “VAS of Well-Being” value ([3]; Subject 2, 60 min.) was 4. For the same compound, the “VAS of Well-Being” value ([3]; Subject 2, 90 min.) was 5, the “VAS of Well-Being” value ([3]; Subject 2, 120 min.) was 4 and the “VAS of Well-Being” value ([3]; Subject 2, 150 min.) was 4. For the same compound, the “VAS of Energy” value ([4]; Combined, 0 min.) was 4, the “VAS of Energy” value ([4]; Combined, 30 min.) was 3.5 and the “VAS of Energy” value ([4]; Combined, 60 min.) was 3.5. The “VAS of Energy” value ([4]; Combined, 90 min.) was 5, the “VAS of Energy” value ([4]; Combined, 120 min.) was 4.5 and the “VAS of Energy” value ([4]; Combined, 150 min.) was 6. The “VAS of Energy” value ([4]; Subject 1, 0 min.) was 5, the “VAS of Energy” value ([4]; Subject 1, 30 min.) was 4 and the “VAS of Energy” value ([4]; Subject 1, 60 min.) was 5. The “VAS of Energy” value ([4]; Subject 1, 90 min.) was 7, the “VAS of Energy” value ([4]; Subject 1, 120 min.) was 5 and the “VAS of Energy” value ([4]; Subject 1, 150 min.) was 7. For the same compound, the “VAS of Energy” value ([4]; Subject 2, 0 min.) was 3, the “VAS of Energy” value ([4]; Subject 2, 30 min.) was 3 and the “VAS of Energy” value ([4]; Subject 2, 60 min.) was 2. The “VAS of Energy” value ([4]; Subject 2, 90 min.) was 3, the “VAS of Energy” value ([4]; Subject 2, 120 min.) was 4 and the “VAS of Energy” value ([4]; Subject 2, 150 min.) was 5. For the same compound, the “VAS of Focus” value ([5]; Combined, 0 min.) was 3.5, the “VAS of Focus” value ([5]; Combined, 30 min.) was 4 and the “VAS of Focus” value ([5]; Combined, 60 min.) was 3. For the same compound, the “VAS of Focus” value ([5]; Combined, 90 min.) was 3, the “VAS of Focus” value ([5]; Combined, 120 min.) was 5 and the “VAS of Focus” value ([5]; Combined, 150 min.) was 5. The “VAS of Focus” value ([5]; Subject 1, 0 min.) was 5, the “VAS of Focus” value ([5]; Subject 1, 30 min.) was 5 and the “VAS of Focus” value ([5]; Subject 1, 60 min.) was 5. The “VAS of Focus” value ([5]; Subject 1, 90 min.) was 5, the “VAS of Focus” value ([5]; Subject 1, 120 min.) was 5 and the “VAS of Focus” value ([5]; Subject 1, 150 min.) was 5. The “VAS of Focus” value ([5]; Subject 2, 0 min.) was 2, the “VAS of Focus” value ([5]; Subject 2, 30 min.) was 3 and the “VAS of Focus” value ([5]; Subject 2, 60 min.) was 3. For the same compound, the “VAS of Focus” value ([5]; Subject 2, 90 min.) was 3, the “VAS of Focus” value ([5]; Subject 2, 120 min.) was 5 and the “VAS of Focus” value ([5]; Subject 2, 150 min.) was 5. The “Blood Ketones” value ([6]; 0 min.) was 0.3 mmol/L, the “Blood Ketones” value ([6]; 20 min.) was 0.6 mmol/L and the “Blood Ketones” value ([6]; 40 min.) was 1.8 mmol/L. For the same compound, the “Blood Ketones” value ([6]; 60 min.) was 1.1 mmol/L, the “Blood Ketones” value ([6]; 80 min.) was 0.5 mmol/L and the “Blood Glucose” value ([7]; 0 min.) was 99.5 mg/dL. For the same compound, the “Blood Glucose” value ([7]; 20 min.) was 103 mg/dL, the “Blood Glucose” value ([7]; 40 min.) was 102.5 mg/dL and the “Blood Glucose” value ([7]; 60 min.) was 94.5 mg/dL. The “Blood Glucose” value ([7]; 80 min.) was 92.5 mg/dL, the “Blood Lactate” value ([8]; 0 min.) was 1.3 mmol/L and the “Blood Lactate” value ([8]; 20 min.) was 1.4 mmol/L. The “Blood Lactate” value ([8]; 40 min.) was 0.7 mmol/L, the “Blood Lactate” value ([8]; 60 min.) was 0.9 mmol/L and the “Blood Lactate” value ([8]; 80 min.) was 1.1 mmol/L. The “Metabolism and tolerance in animals” value [9] was “well metabolized in animals without apparent intolerance”.

— patent publication US20240074996A1, “C5 KETONE COMPOSITIONS AND RELATED METHODS FOR TREATING METABOLIC DYSFUNCTION” (Keto Innovations, LLC, priority 2018, published 2024)
